Laboratory results as given in patent US9249378B2, “Aqueous cleaning compositions having enhanced properties” (Eastman Chemical Company, priority 2013, dated 2016).

Experiment: Solvent vapor pressure at 20° C.
Details: not given
Text: The solvents used to formulate these compositions, along with a few select physical properties of each solvent, are summarized in Table 2, below.

Molecule | Solvent Vapor Pressure at 20° C.
CCC(C)OC(=O)CC(C)O (stereo not shown) [2-butyl 3-hydroxybutyrate] | 0.098 torr
OCc1ccccc1 [Benzyl Alcohol] | 0.076 torr
CCOCCOCCO [Diethylene Glycol Monoethyl Ether] | 0.12 torr
CC(C)COC(=O)CC(C)O (stereo not shown) [i-butyl 3-hydroxybutyrate] | 0.08 torr
CC(O)CC(=O)OC(C)C (stereo not shown) [i-propyl 3-hydroxybutyrate, isopropyl 3-hydroxybutyrate] | 0.17 torr
CCCCOC(=O)CC(C)O (stereo not shown) [n-butyl 3-hydroxybutyrate] | 0.06 torr

Same assay, conditions: neat solvent, 20° C.

Molecule | Solvent Vapor Pressure at 20° C.
CCCCOCCOCCO [Diethylene Glycol Monobutyl Ether] | 0.02 torr
CCCCOCCO [Ethylene glycol monobutyl ether] | 0.60 torr
C=C(C)[C@H]1CC=C(C)CC1 [d-limonene] | 1.5 torr
dibasic ester | 0.20 torr
